ChEMBL document CHEMBL1201862, “PubChem BioAssay data set” (2004)
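All cell lines were grown in 96-well plates and treated with compound for 48 hours. GI50 = concentration required for 50% inhibition of growth.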 Activity calls are given as the source filed them. No stated cut-off is given here; in the data, active = GI50 up to about 1.1 µM and inactive = higher.

What was measured:
Assay in all cases: NCI anticancer screen, dose series, 48 h
NCI-H226 = test system: NCI-H226
HL-60 = test system: HL-60
SK-MEL-5 = test system: SK-MEL-5
SR = test system: SR
UACC-62 = test system: UACC-62
MDA-MB-231 = test system: MDA-MB-231
UACC-257 = test system: UACC-257
RPMI-8226 = test system: RPMI-8226
LOX IMVI = test system: LOX IMVI
NCI-H522 = test system: NCI-H522
SNB-19 = test system: SNB-19
SNB-75 = test system: SNB-75
MDA-N = test system: MDA-N
HCC 2998 = test system: HCC 2998
ACHN = test system: ACHN
NCI-H23 = test system: NCI-H23
DU-145 = test system: DU-145
OVCAR-3 = test system: OVCAR-3
CCRF-CEM = test system: CCRF-CEM
786-0 = test system: 786-0
BT-549 = test system: BT-549
OVCAR-5 = test system: OVCAR-5
NCI-H460 = test system: NCI-H460
K562 = test system: K562
SN12C = test system: SN12C
HOP-62 = test system: HOP-62
Malme-3M = test system: Malme-3M
OVCAR-8 = test system: OVCAR-8
SK-MEL-2 = test system: SK-MEL-2
A549 = test system: A549
U-251 = test system: U-251
HCT-116 = test system: HCT-116
MDA-MB-435 = test system: MDA-MB-435
SK-MEL-28 = test system: SK-MEL-28
SF-268 = test system: SF-268
SW-620 = test system: SW-620
T47D = test system: T47D
HT-29 = test system: HT-29
IGROV-1 = test system: IGROV-1
A498 = test system: A498
MOLT-4 = test system: MOLT-4
OVCAR-4 = test system: OVCAR-4
HCT-15 = test system: HCT-15
PC-3 = test system: PC-3
UO-31 = test system: UO-31
M14 = test system: M14
TK-10 = test system: TK-10
RXF 393 = test system: RXF 393
KM12 = test system: KM12
SF-295 = test system: SF-295
SK-OV-3 = test system: SK-OV-3
NCI/ADR-RES = test system: NCI/ADR-RES
EKVX = test system: EKVX
COLO 205 = test system: COLO 205
CAKI-1 = test system: CAKI-1
MCF7 = test system: MCF7
SF-539 = test system: SF-539
Hs-578T = test system: Hs-578T
HOP-92 = test system: HOP-92

Cc1cc(Cl)ccc1/N=N/C(=O)NNc1ccc(Cl)cc1C
GI50 (NCI-H226): 16.4 µM (inactive) | GI50 (HL-60): 20.3 µM (inactive) | GI50 (SK-MEL-5): 13.9 µM (inactive) | GI50 (SR): 22.2 µM (inactive) | GI50 (UACC-62): 9.04 µM (inactive) | GI50 (MDA-MB-231): 11.7 µM (inactive) | GI50 (UACC-257): 17.1 µM (inactive) | GI50 (RPMI-8226): 22.2 µM (inactive) | GI50 (LOX IMVI): 16.9 µM (inactive) | GI50 (NCI-H522): 20.3 µM (inactive) | GI50 (SNB-19): 17.6 µM (inactive) | GI50 (SNB-75): 15.6 µM (inactive) | GI50 (MDA-N): 16.3 µM (inactive) | GI50 (HCC 2998): 11.5 µM (inactive) | GI50 (ACHN): 16.1 µM (inactive) | GI50 (NCI-H23): 15.5 µM (inactive) | GI50 (DU-145): 10.7 µM (inactive) | GI50 (OVCAR-3): 17.2 µM (inactive) | GI50 (CCRF-CEM): 21.1 µM (inactive) | GI50 (786-0): 16.3 µM (inactive) | GI50 (BT-549): 15.6 µM (inactive) | GI50 (OVCAR-5): 15.8 µM (inactive) | GI50 (NCI-H460): 14.4 µM (inactive) | GI50 (K562): 22 µM (inactive) | GI50 (SN12C): 15.4 µM (inactive) | GI50 (HOP-62): 11.5 µM (inactive) | GI50 (Malme-3M): 21 µM (inactive) | GI50 (OVCAR-8): 13 µM (inactive) | GI50 (SK-MEL-2): 14.1 µM (inactive) | GI50 (A549): 12.9 µM (inactive) | GI50 (U-251): 16.4 µM (inactive) | GI50 (HCT-116): 13.4 µM (inactive) | GI50 (MDA-MB-435): 20.7 µM (inactive) | GI50 (SK-MEL-28): 16.1 µM (inactive) | GI50 (SF-268): 16.4 µM (inactive) | GI50 (SW-620): 15.9 µM (inactive) | GI50 (T47D): 5.87 µM (inactive) | GI50 (HT-29): 21.3 µM (inactive) | GI50 (IGROV-1): 6.62 µM (inactive) | GI50 (A498): 9.06 µM (inactive) | GI50 (MOLT-4): 14 µM (inactive) | GI50 (OVCAR-4): 17.7 µM (inactive) | GI50 (HCT-15): 12.2 µM | GI50 (PC-3): 10.4 µM (inactive) | GI50 (UO-31): 13 µM (inactive) | GI50 (M14): 16.9 µM (inactive) | GI50 (TK-10): 18.2 µM (inactive)

COc1ccc(CCNC(=O)c2ccccc2C2c3ccc(OCc4ccccc4)cc3Oc3cc(OCc4ccccc4)ccc32)cc1OC
GI50 (NCI-H226): > 100 µM (inactive) | GI50 (HL-60): 0.668 µM (active) | GI50 (SK-MEL-5): > 100 µM (inactive) | GI50 (SR): > 100 µM (inactive) | GI50 (UACC-62): > 100 µM (inactive) | GI50 (MDA-MB-231): > 100 µM (inactive) | GI50 (UACC-257): 94.6 µM (inactive) | GI50 (RPMI-8226): > 100 µM (inactive) | GI50 (RXF 393): > 100 µM (inactive) | GI50 (LOX IMVI): > 100 µM (inactive) | GI50 (NCI-H522): > 100 µM (inactive) | GI50 (KM12): > 100 µM (inactive) | GI50 (SNB-19): > 100 µM (inactive) | GI50 (MDA-N): > 100 µM (inactive) | GI50 (HCC 2998): > 100 µM (inactive) | GI50 (ACHN): > 100 µM (inactive) | GI50 (SF-295): > 100 µM (inactive) | GI50 (NCI-H23): > 100 µM (inactive) | GI50 (DU-145): > 100 µM (inactive) | GI50 (OVCAR-3): > 100 µM (inactive) | GI50 (786-0): > 100 µM (inactive) | GI50 (BT-549): > 100 µM (inactive) | GI50 (OVCAR-5): > 100 µM (inactive) | GI50 (K562): > 100 µM (inactive) | GI50 (SK-OV-3): > 100 µM (inactive) | GI50 (SN12C): > 100 µM (inactive) | GI50 (NCI/ADR-RES): > 100 µM (inactive) | GI50 (HOP-62): > 100 µM (inactive) | GI50 (EKVX): > 100 µM (inactive) | GI50 (Malme-3M): > 100 µM (inactive) | GI50 (OVCAR-8): > 100 µM (inactive) | GI50 (SK-MEL-2): > 100 µM (inactive) | GI50 (A549): > 100 µM (inactive) | GI50 (U-251): > 100 µM (inactive) | GI50 (HCT-116): > 100 µM (inactive) | GI50 (MDA-MB-435): > 100 µM (inactive) | GI50 (SK-MEL-28): > 100 µM (inactive) | GI50 (SF-268): > 100 µM (inactive) | GI50 (SW-620): > 100 µM (inactive) | GI50 (T47D): > 100 µM (inactive) | GI50 (HT-29): > 100 µM (inactive) | GI50 (COLO 205): > 100 µM (inactive) | GI50 (IGROV-1): > 100 µM (inactive) | GI50 (CAKI-1): > 100 µM (inactive) | GI50 (A498): > 100 µM (inactive) | GI50 (MOLT-4): > 100 µM (inactive) | GI50 (OVCAR-4): > 100 µM (inactive) | GI50 (HCT-15): > 100 µM | GI50 (PC-3): > 100 µM (inactive) | GI50 (UO-31): > 100 µM (inactive) | GI50 (MCF7): > 100 µM (inactive) | GI50 (M14): > 100 µM (inactive) | GI50 (TK-10): > 100 µM (inactive)

CCOC(=O)c1c(-c2ccc(OC)cc2)ccn1C
GI50 (NCI-H226): > 10 µM (inactive) | GI50 (SK-MEL-5): > 10 µM (inactive) | GI50 (SR): > 10 µM (inactive) | GI50 (UACC-62): > 10 µM (inactive) | GI50 (MDA-MB-231): > 10 µM (inactive) | GI50 (UACC-257): > 10 µM (inactive) | GI50 (RXF 393): 9.1 µM (inactive) | GI50 (LOX IMVI): 0.00227 µM (active) | GI50 (NCI-H522): > 9.62 µM (inactive) | GI50 (KM12): > 10 µM (inactive) | GI50 (SNB-19): > 10 µM (inactive) | GI50 (SNB-75): > 10 µM (inactive) | GI50 (HCC 2998): > 10 µM (inactive) | GI50 (SF-539): 0.0975 µM (active) | GI50 (ACHN): > 10 µM (inactive) | GI50 (SF-295): > 10 µM (inactive) | GI50 (NCI-H23): > 10 µM (inactive) | GI50 (DU-145): > 10 µM (inactive) | GI50 (OVCAR-3): > 10 µM (inactive) | GI50 (CCRF-CEM): > 10 µM (inactive) | GI50 (786-0): > 10 µM (inactive) | GI50 (BT-549): > 10 µM (inactive) | GI50 (OVCAR-5): > 10 µM (inactive) | GI50 (NCI-H460): > 10 µM (inactive) | GI50 (K562): > 10 µM (inactive) | GI50 (SK-OV-3): > 10 µM (inactive) | GI50 (SN12C): > 10 µM (inactive) | GI50 (NCI/ADR-RES): > 10 µM (inactive) | GI50 (HOP-62): > 10 µM (inactive) | GI50 (EKVX): > 10 µM (inactive) | GI50 (Malme-3M): > 10 µM (inactive) | GI50 (OVCAR-8): > 10 µM (inactive) | GI50 (SK-MEL-2): > 10 µM (inactive) | GI50 (A549): > 10 µM (inactive) | GI50 (U-251): > 10 µM (inactive) | GI50 (HCT-116): > 10 µM (inactive) | GI50 (MDA-MB-435): > 10 µM (inactive) | GI50 (SK-MEL-28): 4.54 µM (inactive) | GI50 (SF-268): > 8.41 µM (inactive) | GI50 (SW-620): > 10 µM (inactive) | GI50 (T47D): > 10 µM (inactive) | GI50 (HT-29): > 10 µM (inactive) | GI50 (COLO 205): > 10 µM (inactive) | GI50 (IGROV-1): > 10 µM (inactive) | GI50 (CAKI-1): > 10 µM (inactive) | GI50 (MOLT-4): > 10 µM (inactive) | GI50 (OVCAR-4): > 10 µM (inactive) | GI50 (HCT-15): > 10 µM | GI50 (UO-31): > 10 µM (inactive) | GI50 (MCF7): > 10 µM (inactive) | GI50 (M14): > 10 µM (inactive) | GI50 (Hs-578T): > 10 µM (inactive) | GI50 (TK-10): > 10 µM (inactive) | GI50 (HOP-92): > 10 µM (inactive)
